From article PMC8692993, “PPARα and PPARγ activation is associated with pleural mesothelioma invasion but therapeutic inhibition is ineffective” (iScience, 2021)

How the values were obtained:
[1] = tested on: head and neck paraganglioma; set-up: method as in Florio et al., 2017; details: 24 μM, by cell-cycle arrest and caspase-dependent apoptosis; ref Florio et al., 2017; cited from earlier work
PPARγ [2] = biological target: T1, PPARγ (Homo sapiens, UniProt P37231); test: HG5LN reporter cell assay, PPARγ-mediated transcription; format: cell-based; set-up: expressed in transfected cells; host or cells: HG5LN (HeLa-derived, GAL4RE-luciferase)
T1 sequence (P37231 238-503 limits assumed): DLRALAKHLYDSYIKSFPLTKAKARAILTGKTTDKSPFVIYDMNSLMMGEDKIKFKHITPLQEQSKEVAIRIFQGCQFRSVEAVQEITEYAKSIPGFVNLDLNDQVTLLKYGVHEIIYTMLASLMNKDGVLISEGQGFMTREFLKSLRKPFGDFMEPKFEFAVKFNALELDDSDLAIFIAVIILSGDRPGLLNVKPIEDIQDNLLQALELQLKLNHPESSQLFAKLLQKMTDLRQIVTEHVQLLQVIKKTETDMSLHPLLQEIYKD
Excerpt: Nuclear receptors, including PPARα and γ, are ligand-inducible transcription factors that form heterodimers with retinoid X receptors and bind to specific DNA sites located in the enhancer/promoter region of target genes, releasing co-repressors and/or recruiting co-activators ([Wang, 2010]). We therefore assessed the functional consequences of the ligands on PPARα and γ-mediated transcriptional activation in reporter cell lines. These cell lines were generated as previously reported by a two-step transfection procedure ([Seimandi et al., 2005]). First, a stable cell line, HG5LN, expressing the reporter gene (GAL4RE-luciferase) was developed from the HeLa cell line. These cells were then transfected with a plasmid expressing the C-terminal ligand-binding domain of PPARα or γ fused to GAL4 DNA-binding domain. The parental HG5LN cells were used as a control to test non-specific modulation of luciferase expression by the small molecules investigated (Figure S4A). The HG5LN PPAR reporter cells therefore allow comparison of the functional activity at, and selectivity of different ligands for, PPARα and γ. […] As expected ([Abu Aboud et al., 2015]), GW6471 potently antagonized PPARα (Figure 4E and Table 1).
A transfected […] cell line HG5LN was used ([Balaguer et al., 2001]). These cells were cultured in Dubecco's modified Eagle's medium (DMEM-F12 Thermo Fisher Scientific) with phenol red and supplemented with 5% foetal calf serum, incubated at 37°C in a 5% CO2/95% air-humidified atmosphere. Luciferase assays were performed in DMEM-F12 (Thermo Fisher Scientific) without phenol red and supplemented with 5% dextran-coated charcoal-stripped FCS (test culture medium), puromycin (Thermo Fisher Scientific) 0.5 μg/mL and geneticin (Thermo Fisher Scientific) 1 mg/mL. Cells were seeded at a density of 5 x 10^4 cells/well and incubated for 8 h at 37°C in a 96-well plate white opaque tissue culture plates (Becton-Dickinson). Tested compounds were added in serial dilutions and incubated for 16 h at 37°C. After incubation, the medium containing the effectors was carefully removed and replaced by culture medium containing 3 x 10^−4 mol/L luciferin (Sigma Chemicals). After 5 min incubation at room temperature, the 96-well plate was then read with a Microbeta Wallac luminometer and the luminescence was measured in the living cells for 2 s. All experiments were performed in quadruplicate.

renal cell carcinoma = tested on: renal cell carcinoma; set-up: method as in Abu Aboud et al., 2015; details: 20 mg/kg; ref Abu Aboud et al., 2015; cited from earlier work
AE17 = test: MTT cell metabolic activity assay, AE17; format: cell-based, mouse; details: AE17, 48 h, 0.391-100 μM; effect at higher micromolar concentrations
Method: Cells were harvested and seeded in 96-flat well plates (Corning) at a density of 5 x 10^4 cells/mL overnight. Media was removed and 100 μL media with GW6471 or GW9662 at indicated concentrations was added to each well. Cell viability and toxicity were measured at 48 h. Cells were incubated with 50 μL of a 2 mg/mL solution of (3-(4,5-dimethyl-thiazole-2-yl)-2,5-[…] tetrazolium (MTT, Sigma-Aldrich) in PBS for 4 h and then exposed to 100 μL dimethyl sulfoxide (DMSO; Sigma-Aldrich). Cell viability was measured by absorption at 570 nm in a microplate spectrophotometer (Spectromax 250 plate reader). Results are shown as relative cell viability.

PPARγ [3] = biological target: T1, PPARγ; test: LanthaScreen TR-FRET binding assay, PPARγ; details: 2 h incubation, mean of 3 replicates ± SEM
Method: The LanthaScreen™ TR-FRET binding assay was performed following the manufacturer's guidelines (PV4894, Invitrogen) as follows, 20 mM stock solution of the ligand or control in DMSO were serially diluted using 100% DMSO to produce a range of concentrations from 100 μM to 1 pM. The test compound solutions were mixed with the reaction buffer in a 1 (ligand) in 10 (reaction buffer) dilution for a final 2X ligand concentration. This was mixed with the reaction components (glutathione S-transferase (GST)-PPPARγLBD (0.5 nM)/, terbium (Tb)-labelled anti-GST antibody (5 nM) and Fluormone pan-PPAR green (5 nM for PPARγ; 20 nM for PPARα) at room temperature in a ratio of 8 μLl 2X ligand solution: 4 μLl of 4XFluormone: and 4 μLl 4X GST-PPPARγLBD/terbium (Tb)-labelled anti-GST antibody to produce a final reaction mixture volume of 16 μL. The concentration of DMSO in the final reaction mixture was 5%. The reaction mixture was kept at room temperature for 2 h prior to recording the TR-FRET emission spectra using a CLARIOstar Plus microplate reader (BMG Labtech). […] Results are expressed as the ratio of fluorescence intensity at 520 nm (Fluormone emission) and 490 nm (Tb emission). […] For each compound three serial dilutions were prepared and measured separately. The IC50 and SEM values were determined using a sigmoidal dose-response equation with varying slope using GraphPad Prism.

CCC(=O)NC[C@H](Cc1ccc(OCCc2nc(-c3ccccc3)oc2C)cc1)N/C(C)=C\C(=O)c1ccc(C(F)(F)F)cc1 [GW6471]
Cell viability and growth [1]: reduced cell viability and growth
Functionality, Type (PPARγ [2]): antagonist
IC50 (PPARγ [2]; inhibition of agonism by 30 nM rosiglitazone, 16 h incubation, mean of 3 experiments ± SEM): 210 ± 64 nM
Tumor reduction in vivo (renal cell carcinoma): significant tumor reduction
Cell viability (MTT) (AE17): lowered viability
IC50 (PPARγ [3]): 39.4 ± 18.2 nM
